Common to all, as to assay type: cell-based
Assay [1] addresses T1, human serotonin transporter (Homo sapiens, UniProt P31645).
T1 construct: expressed in transfected cells
The experiment in a line: Inhibitory action on human serotonin transporter ([3H]-5-hydroxytryptamine uptake in CHO cells). As to conditions: CHO, compound 1 μM; relative to inhibitory activity of 10 μM Paroxetine as 100%; read-out: inhibitory rate (%). An excerpt:
(§1) Human serotonin transporter cDNA was amplified from human brain cDNA library by PCR, and inserted into pCRII-TOPO vector (manufactured by Invitrogen). The base sequence was confirmed and modified, and subcloned to pcDNA3.1 vector (manufactured by Invitrogen), whereby a human serotonin transporter expression plasmid was constructed. Human norepinephrine transporter cDNA was purchased from Invitrogen, and the base sequence was confirm and modified, and subcloned to pcDNA3.1 vector, whereby a human norepinephrine transporter expression plasmid was constructed.
(§2) The monoamine transporter expression plasmids thus prepared were introduced into CHO-K1 cells using FuGENE6 (manufactured by Roche Diagnostics) and according to the attached protocol, whereby each expressing cell was established.
CHO cells stably expressing a human serotonin transporter were used for the measurement of human serotonin transporter inhibitory activity. Unless particularly indicated, these CHO cells were cultured in a Ham/F12 medium (Invitrogen) containing 10% fetal bovine serum (MOREGATE).
The cultured cells that reached almost confluent were rinsed with PBS (Invitrogen), detached with Trypsin/EDTA (Invitrogen), and collected by a centrifugal operation. The obtained cells were counted, and diluted to 3×10^5 cells per 1 mL medium, the mixture was dispensed to a 96 well white plate (Corning) at 100 μL per well, and cultured overnight in a CO2 incubator.
(§3) Then, an assay buffer (126 mM NaCl, 4.95 mM KCl, 1.26 mM KH2PO4, 1.26 mM MgSO4, 10 mM HEPES, 2.32 mM CaCl2, 5.52 mM Glucose, 0.5% BSA) was prepared, the medium in the cell plate was removed and the assay buffer was added by 80 μL. A test compound was diluted with the assay buffer to a 10-fold concentration of the final concentration, and the mixture was dispensed to a 96 well polypropylene plate. The diluted test compound was dispensed to the cell plate by 10 μL. [3H]-5-Hydroxytryptamine (GE Healthcare) was diluted with the assay buffer to 200 nM, and the mixture was dispensed to the cell plate by 10 μL. At 20 min from [3H]-5-hydroxytryptamine addition, the assay buffer was removed by suction, and the plate was washed twice with 150 μL of PBS (Invitrogen) per well. Microscinti20 (PerkinElmer) was dispensed to each well by 100 μL, and the mixture was stirred for about 30 min. The radioactivity was measured by TopCount (PerkinElmer).
The inhibitory activity of each compound (10 μM) was calculated as a relative activity value based on the inhibitory activity of 10 μM Paroxetine (serotonin transporter inhibitor) as 100%.
In addition, the inhibitory activity of each compound (1 μM) was calculated as a relative activity value based on the inhibitory activity of 10 μM Paroxetine (serotonin transporter inhibitor) as 100%.

In assay [2] the target is T2, human norepinephrine transporter (Homo sapiens, UniProt P23975).
T2 construct: expressed in transfected cells
The experiment in a line: Inhibitory action on human norepinephrine transporter ([3H]-norepinephrine uptake in CHO cells). The conditions noted are these: CHO, compound 1 μM; relative to inhibitory activity of 10 μM DMI as 100%; read-out: inhibitory rate (%).
Description: as §1, §2
CHO cells stably expressing human norepinephrine transporter were used for the measurement of human norepinephrine transporter inhibitory activity. Unless otherwise indicated, these CHO cells were cultured in Ham/F12 medium (Invitrogen) containing 10% fetal bovine serum (MOREGATE).
The cultured cells that reached almost confluent were rinsed with PBS (Invitrogen), detached with Trypsin/EDTA (Invitrogen), and collected by a centrifugal operation. The obtained cells were counted, and diluted to 3×10^5 cells per 1 mL medium, and the mixture was dispensed to a 96 well white plate (Corning) at 100 μL per well, and cultured overnight in a CO2 incubator.
as §3, with “μL. [3H]-Norepinephrine” for “μL. [3H]-5-Hydroxytryptamine”, “At 45” for “At 20”, “from [3H]-norepinephrine” for “from [3H]-5-hydroxytryptamine”
The inhibitory activity of each compound (10 μM) was calculated as a relative activity value based on the inhibitory activity of 10 μM DMI (norepinephrine transporter inhibitor) as 100%.
The inhibitory activity of each compound (1 μM) was calculated as a relative activity value based on the inhibitory activity of 10 μM DMI (norepinephrine transporter inhibitor) as 100%.

In assay [3] the target is T3, human dopamine transporter (Homo sapiens, UniProt Q01959).
T3 construct: expressed in transfected cells
The assay can be described thus: Inhibitory action on human dopamine transporter ([3H]-dopamine uptake in CHO cells). As to conditions: CHO, compound 1 μM; relative to inhibitory activity of 100 μM Nomifensine as 100%; read-out: inhibitory rate (%).
Description: SRα promoter contained in pTB1411 described in JP-A-H5-076385 was cleaved with restriction enzyme […](manufactured by TAKARA BIO INC.), blunt-ended, further cleaved with restriction enzyme EcoRI (manufactured by TAKARA BIO INC.), and fragmented. On the other hand, pCI vector was cleaved with restriction enzyme BglII (manufactured by TAKARA BIO INC.), blunt-ended with T4 DNA polymerase, and further cleaved with restriction enzyme EcoRI (manufactured by TAKARA BIO INC.). Into this site was inserted an SRa promoter fragment to give pCI-SRa. Then, pCI-SRa was cleaved with restriction enzyme ClaI (manufactured by TAKARA BIO INC.) and blunt-ended. Into this site was inserted a 1.63 Kb fragment obtained by cleaving pGFP-C1 (manufactured by TOYOBO) with restriction enzyme Bsu36I (manufactured by Daiichi Pure Chemicals Co., Ltd.) followed by blunt-ending, whereby pMSRα neo was prepared. Human dopamine transporter cDNA was amplified from human substantia nigra cDNA library by PCR, and inserted into the pCRII vector (manufactured by Invitrogen). The base sequence was confirmed, modified and subcloned to pMSRα neo, whereby a human dopamine transporter expression plasmid was constructed.
as §2
CHO cells stably expressing human dopamine transporter were used for the measurement of human dopamine transporter inhibitory activity. Unless otherwise indicated, these CHO cells were cultured in Ham/F12 medium (Invitrogen) containing 10% fetal bovine serum (MOREGATE).
One day before the assay, the cultured cells that reached almost confluent were rinsed with PBS (Invitrogen), detached with Trypsin/EDTA (Invitrogen), and collected by a centrifugal operation. The obtained cells were counted, and diluted to 3×10^5 cells per 1 mL medium, and the mixture was dispensed to a 96 well white plate (Corning) at 100 μL per well, and cultured overnight in a CO2 incubator.
as §3, with “On the day of the test, an” for “Then, an”, “μL. [3H]-Dopamine” for “μL. [3H]-5-Hydroxytryptamine”, “nM, cold dopamine was diluted to 10 μM,” for “nM,”, “At 60” for “At 20”, “from [3H]-dopamine” for “from [3H]-5-hydroxytryptamine”
The inhibitory activity of each compound (10 μM) was calculated as a relative activity value based on the inhibitory activity of 100 μM Nomifensine (dopamine transporter inhibitor) as 100%.
The inhibitory activity of each compound (1 μM) was m calculated as a relative activity value based on the inhibitory activity of 100 μM Nomifensine (dopamine transporter inhibitor) as 100%.

Structures can show the parent of a compound that is named as a salt.

T2 sequence (P23975 whole entry): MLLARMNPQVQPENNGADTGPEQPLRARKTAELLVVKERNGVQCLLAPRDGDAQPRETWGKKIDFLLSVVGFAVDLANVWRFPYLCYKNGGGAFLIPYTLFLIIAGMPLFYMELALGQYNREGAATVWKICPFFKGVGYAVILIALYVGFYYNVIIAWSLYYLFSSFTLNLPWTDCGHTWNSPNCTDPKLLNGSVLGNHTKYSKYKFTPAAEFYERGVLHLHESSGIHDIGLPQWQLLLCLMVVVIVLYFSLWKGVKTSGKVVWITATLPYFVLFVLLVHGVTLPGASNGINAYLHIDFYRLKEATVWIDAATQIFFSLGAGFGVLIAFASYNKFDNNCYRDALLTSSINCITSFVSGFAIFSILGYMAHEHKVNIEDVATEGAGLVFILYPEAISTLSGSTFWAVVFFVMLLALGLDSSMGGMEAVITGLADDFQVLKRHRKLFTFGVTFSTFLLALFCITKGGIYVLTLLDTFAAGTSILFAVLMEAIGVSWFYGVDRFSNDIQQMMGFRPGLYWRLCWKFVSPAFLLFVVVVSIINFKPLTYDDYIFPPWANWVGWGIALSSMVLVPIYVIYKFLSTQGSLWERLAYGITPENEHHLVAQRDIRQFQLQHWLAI
T3 sequence (Q01959 whole entry): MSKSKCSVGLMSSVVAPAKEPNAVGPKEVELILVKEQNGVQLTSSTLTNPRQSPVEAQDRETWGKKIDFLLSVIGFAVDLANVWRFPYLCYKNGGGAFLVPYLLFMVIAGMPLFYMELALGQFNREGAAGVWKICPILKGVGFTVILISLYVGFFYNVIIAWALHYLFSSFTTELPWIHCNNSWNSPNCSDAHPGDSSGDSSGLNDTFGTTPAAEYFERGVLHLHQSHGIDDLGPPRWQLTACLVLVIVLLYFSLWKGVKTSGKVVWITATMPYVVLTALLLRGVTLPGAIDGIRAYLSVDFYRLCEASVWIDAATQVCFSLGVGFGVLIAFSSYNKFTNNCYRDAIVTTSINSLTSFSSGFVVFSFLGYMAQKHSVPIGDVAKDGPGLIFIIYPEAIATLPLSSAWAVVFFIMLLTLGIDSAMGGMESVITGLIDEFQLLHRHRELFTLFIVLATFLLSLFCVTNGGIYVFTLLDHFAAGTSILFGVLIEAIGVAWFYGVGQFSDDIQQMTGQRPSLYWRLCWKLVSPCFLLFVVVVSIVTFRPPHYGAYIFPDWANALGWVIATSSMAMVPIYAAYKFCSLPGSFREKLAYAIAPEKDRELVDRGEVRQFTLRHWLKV
T1 sequence (P31645 whole entry): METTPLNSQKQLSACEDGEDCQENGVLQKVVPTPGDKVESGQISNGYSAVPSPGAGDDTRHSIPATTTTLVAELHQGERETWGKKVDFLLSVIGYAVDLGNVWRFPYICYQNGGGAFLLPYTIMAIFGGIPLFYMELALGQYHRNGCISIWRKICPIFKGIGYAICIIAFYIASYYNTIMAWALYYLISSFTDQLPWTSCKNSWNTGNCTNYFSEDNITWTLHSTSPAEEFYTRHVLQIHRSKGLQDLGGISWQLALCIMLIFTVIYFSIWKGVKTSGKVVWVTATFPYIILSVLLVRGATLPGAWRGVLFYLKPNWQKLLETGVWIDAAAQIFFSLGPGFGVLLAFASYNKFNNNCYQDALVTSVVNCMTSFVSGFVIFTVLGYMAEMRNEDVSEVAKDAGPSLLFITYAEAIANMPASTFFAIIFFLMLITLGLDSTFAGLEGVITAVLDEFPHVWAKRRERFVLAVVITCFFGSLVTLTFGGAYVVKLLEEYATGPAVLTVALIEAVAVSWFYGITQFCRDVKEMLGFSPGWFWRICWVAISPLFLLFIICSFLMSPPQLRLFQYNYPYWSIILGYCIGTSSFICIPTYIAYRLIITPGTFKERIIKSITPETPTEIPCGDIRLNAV

Take `OCCOC[C@H]1OCCNC[C@@H]1c1ccc(Cl)c(Cl)c1` (racemic) [Example 495, 2-{[(6RS,7RS)-6-(3,4-dichlorophenyl)-1,4-oxazepan-7-yl]methoxy}ethanol monohydrochloride]: the inhibition at 1 µM in assay [1] was 59%; in assay [2], 105%; in assay [3] it was 42%.
For the compound `CS(=O)(=O)NCCC[C@@H]1OCCNC[C@H]1c1ccc(Cl)c(Cl)c1` (racemic) [Example 520, N-{3-[(6RS,7SR)-6-(3,4-dichlorophenyl)-1,4-oxazepan-7-yl]propyl}methanesulfonamide monohydrochloride], the inhibition at 1 µM in assay [1] came out at 84%; in assay [2], 105%; in assay [3], 36%.
The matching figures for `O=S(=O)(NC[C@@]1(O)CNCCO[C@@H]1c1ccc(Cl)c(Cl)c1)C(F)F` (racemic) [Example 521, N-{[(6RS,7SR)-7-(3,4-dichlorophenyl)-6-hydroxy-1,4-oxazepan-6-yl]methyl}-1,1-difluoromethanesulfonamide monohydrochloride]: 84%, 104% and 76%.
On to `CO[C@]1(CNS(C)(=O)=O)CNCCO[C@@H]1c1ccc(Cl)c(Cl)c1` (racemic) [Example 523, N-{[(6RS,7SR)-7-(3,4-dichlorophenyl)-6-methoxy-1,4-oxazepan-6-yl]methyl}methanesulfonamide monohydrochloride], for which the figures for the inhibition at 1 µM in assay [1], in assay [2] and in assay [3] were 64%, 91% and 2%, respectively.
`CS(=O)(=O)C[C@@]1(O)CNCCO[C@@H]1c1ccc(Cl)c(F)c1` (racemic) [Example 538, (6RS,7RS)-7-(4-chloro-3-fluorophenyl)-6-[(methylsulfonyl)methyl]-1,4-oxazepan-6-ol monohydrochloride]: the inhibition at 1 µM in assay [1] stood at 91%; in assay [2] it was 102%; in assay [3], 38%.
The matching figures for `O=C(O)c1cccn(C[C@@H]2CNCCO[C@H]2c2ccc(Cl)c(F)c2)c1=O` (racemic) [Example 588, 1-{[(6RS, 7SR)-7-(4-chloro-3-fluoro-phenyl)-1,4-oxazepan-6-yl]methyl}-2-oxo-1,2-dihydro-pyridine-3-carboxylic acid]: 43%, 104% and 12%.
`Cc1ccc([C@H]2OCCNC[C@@H]2CNS(C)(=O)=O)cc1Cl` (relative stereo) [Example 409, N-{[(6R,7S)-7-(3-chloro-4-methylphenyl)-1,4-oxazepan-6-yl]methyl}methanesulfonamide monohydrochloride]: the inhibition at 1 µM in assay [1] turned out to be 56%; in assay [2] it was 105%; in assay [3], 24%.
Regarding `CO[C@@]1(CNC(C)=O)CNCCO[C@H]1c1ccc(Cl)c(F)c1` (relative stereo) [Example 561, N-{[(6R*,7S*)-7-(4-chloro-3-fluorophenyl)-6-methoxy-1,4-oxazepan-6-yl]methyl}acetamide monohydrochloride (retention time long)], the inhibition at 1 µM in assay [1] was 46%; in assay [2] it was 98%; in assay [3], 1%.
`CC(=O)N(C)C[C@]1(O)CNCCO[C@H]1c1ccc(Cl)c(F)c1` (relative stereo) [Example 563, N-{[(6R*,7S*)-7-(4-chloro-3-fluorophenyl)-6-hydroxy-1,4-oxazepan-6-yl]methyl}-N-methylacetamide monohydrochloride (retention time short)]: the inhibition at 1 µM worked out at 87% in assay [1], 103% in assay [2] and 2% in assay [3].
The matching figures for `CS(=O)(=O)NC[C@@H]1CNCCO[C@H]1c1ccc(Cl)c(Cl)c1` [Example 34, N-{[(6S,7R)-7-(3,4-dichlorophenyl)-1,4-oxazepan-6-yl]methyl}methanesulfonamide monohydrochloride]: 84%, 96% and 75%.
On the same counts, the results for `NS(=O)(=O)NC[C@@H]1CNCCO[C@H]1c1ccc(Cl)c(Cl)c1` [Example 35, N-{[(6S,7R)-7-(3,4-dichlorophenyl)-1,4-oxazepan-6-yl]methyl}sulfamide monohydrochloride] are 86%, 99% and 63%.
